Experimental data as given in PubChem BioAssay (NCI).
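All cell lines were grown in 96-well plates and treated with compound for 48 hours. Abbreviation: GI50, concentration required for 50% inhibition of growth. TGI denotes the concentration required for complete inhibition of growth.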

Tests used:
Test in all cases: NCI anticancer screen, dose series, 48 h
[1] = system: M14 melanoma
[2] = system: SK-OV-3 ovarian
[3] = system: HCT-15 colon
[4] = system: KM12 colon
[5] = system: NCI-H522 lung
[6] = system: MDA-MB-231 breast
[7] = system: SF-295 CNS
[8] = system: SF-268 CNS
[9] = system: T-47D breast
[10] = system: MDA-MB-435
[11] = system: MCF7 breast
[12] = system: UO-31 renal
[13] = system: SR leukemia
[14] = system: TK-10 renal
[15] = system: UACC-62 melanoma
[16] = system: NCI/ADR-RES ovarian
[17] = system: IGROV1 ovarian
[18] = system: SK-MEL-28 melanoma
[19] = system: COLO 205 colon
[20] = system: PC-3 prostate
[21] = system: HS 578T breast
[22] = system: SN12C renal
[23] = system: OVCAR-5 ovarian
[24] = system: SF-539 CNS
[25] = system: NCI-H460 lung
[26] = system: NCI-H226 lung
[27] = system: SNB-19 CNS
[28] = system: BT-549 breast
[29] = system: SNB-75 CNS
[30] = system: OVCAR-3 ovarian
[31] = system: U251 CNS
[32] = system: LOX IMVI melanoma
[33] = system: OVCAR-8 ovarian
[34] = system: RPMI-8226 leukemia
[35] = system: RXF 393 renal
[36] = system: CCRF-CEM leukemia
[37] = system: EKVX NSCLC
[38] = system: OVCAR-4 ovarian
[39] = system: HCT-116 colon
[40] = system: SK-MEL-2 melanoma
[41] = system: A549 NSCLC
[42] = system: HOP-92 NSCLC
[43] = system: SK-MEL-5 melanoma
[44] = system: HT29 colon
[45] = system: A498 renal
[46] = system: 786-0 renal
[47] = system: SW-620 colon
[48] = system: K-562 leukemia
[49] = system: CAKI-1 renal
[50] = system: HOP-62 NSCLC
[51] = system: NCI-H23 lung
[52] = system: HCC-2998 colon
[53] = system: MOLT-4 leukemia
[54] = system: DU-145 prostate
[55] = system: UACC-257 melanoma
[56] = system: ACHN renal

## C/C1=C\CC[C@@](C)(O)[C@H]2C[C@H](CC/C(C)=C/CC1)C1(CC1)C(=O)O2
[1]
  GI50: 31.4 µM
  TGI: > 100 µM
[2]
  GI50: > 100 µM
  TGI: > 100 µM
[3]
  GI50: 17.6 µM
  TGI: 36.8 µM
[4]
  GI50: 37.2 µM
  TGI: > 100 µM
[5]
  GI50: 23.1 µM
  TGI: 62.9 µM
[6]
  GI50: 17.5 µM
  TGI: 35.1 µM
[7]
  GI50: 19.3 µM
  TGI: 46.7 µM
[8]
  GI50: 19.3 µM
  TGI: 41.2 µM
[9]
  GI50: 36.5 µM
  TGI: > 100 µM
[10]
  GI50: 25.4 µM
  TGI: 79.1 µM
[11]
  GI50: 21 µM
  TGI: 57.4 µM
[12]
  GI50: 18.2 µM
  TGI: 33.8 µM
[13]
  GI50: 14.1 µM
  TGI: 32.6 µM
[14]
  GI50: 32.9 µM
  TGI: > 100 µM
[15]
  GI50: 23.9 µM
  TGI: 99.8 µM
[16]
  GI50: 23.6 µM
  TGI: 57.4 µM
[17]
  GI50: 18.9 µM
  TGI: 39.7 µM
[18]
  GI50: 45.3 µM
  TGI: > 100 µM
[19]
  GI50: 32.5 µM
  TGI: > 100 µM
[20]
  GI50: 14.8 µM
  TGI: 32.4 µM
[21]
  GI50: 29.9 µM
  TGI: 96.5 µM
[22]
  GI50: 20.3 µM
  TGI: 43.2 µM
[23]
  GI50: 31.4 µM
  TGI: 80 µM
[24]
  GI50: 17.1 µM
  TGI: 33.5 µM
[25]
  GI50: 19.6 µM
  TGI: 45.7 µM
[26]
  GI50: 21.2 µM
  TGI: 46.5 µM
[27]
  GI50: 85.6 µM
  TGI: > 100 µM
[28]
  GI50: 23.7 µM
  TGI: 55.7 µM
[29]
  GI50: 44.2 µM
  TGI: > 100 µM
[30]
  GI50: 25.2 µM
  TGI: 84.7 µM
[31]
  GI50: 17.5 µM
  TGI: 37.1 µM
[32]
  GI50: 13.6 µM
  TGI: 28.6 µM
[33]
  GI50: 20 µM
  TGI: 40.8 µM
[34]
  GI50: 14.2 µM
  TGI: 35.8 µM
[35]
  GI50: 18.4 µM
  TGI: 42.8 µM
[36]
  GI50: 13.5 µM
  TGI: 39 µM
[37]
  GI50: 37 µM
  TGI: > 100 µM
[38]
  GI50: 63.4 µM
  TGI: > 100 µM
[39]
  GI50: 18.1 µM
  TGI: 32.2 µM
[40]
  GI50: 39.1 µM
  TGI: > 100 µM
[41]
  GI50: 17.4 µM
  TGI: 32.3 µM
[42]
  GI50: 16 µM
  TGI: 33.3 µM
[43]
  GI50: 18.6 µM
  TGI: 35.1 µM
[44]
  GI50: 36.6 µM
  TGI: > 100 µM
[45]
  GI50: 20.1 µM
  TGI: 66.2 µM
[46]
  GI50: 16.4 µM
  TGI: 30.6 µM
[47]
  GI50: 21.8 µM
  TGI: 46.2 µM
[48]
  GI50: 13.2 µM
  TGI: 29 µM
[49]
  GI50: 20.7 µM
  TGI: 43.3 µM
[50]
  GI50: 18.5 µM
  TGI: 35.4 µM
[51]
  GI50: 38 µM
  TGI: > 100 µM
[52]
  GI50: 18 µM
  TGI: 35.2 µM
[53]
  GI50: 16.6 µM
  TGI: 55.9 µM
[54]
  GI50: 16.6 µM
  TGI: 31.2 µM
[55]
  GI50: 19.4 µM
  TGI: 67.2 µM
[56]
  GI50: 16.8 µM
  TGI: 31.3 µM
